Reference: US8536332B2, “Modulating signal transduction pathways with substituted pyridol [2,3-b] pyrazines” (Aeterna Zentaris GmbH, priority 2007, dated 2013)

Compared with `COc1cc(-c2ccc3ncc(NC(=O)NC(C)(C)C)nc3n2)ccc1O` [Compound 28, 1-tert-Butyl-3-[6-(4-hydroxy-3-methoxy-phenyl)-pyrido[2,3-b]pyrazin-3-yl]-urea], `COc1cc(-c2ccc3ncc(NC(=O)NCCCc4ccccc4)nc3n2)ccc1O` [Compound 629, 1-[6-(4-Hydroxy-3-methoxy-phenyl)-pyrido[2,3-b]pyrazin-3-yl]-3-(3-phenyl-propyl)-urea] is higher in melting point: 219 to 222 °C for the first, 233 to 236 °C for the second.

`CNC(=S)Nc1ccc2ncc(Nc3cc(OC)c(OC)c(OC)c3)nc2n1` [Compound 692, 1-Methyl-3-[3-(3,4,5-trimethoxy-phenylamino)-pyrido[2,3-b]pyrazin-6-yl]-thiourea] and `CCNC(=S)Nc1ccc2ncc(Nc3ccc(O)c(C)c3)nc2n1` [Compound 331, 1-Ethyl-3-[3-(4-hydroxy-3-methyl-phenylamino)-pyrido[2,3-b]pyrazin-6-yl]-thiourea] cannot be ordered by melting point: 258 to 261 °C for the first, 258 °C for the second.

Compared with `CCNC(=O)Nc1ccc2ncc(Nc3cccc(Cl)c3)nc2n1` [Compound 167, 1-[3-(3-Chloro-phenylamino)-pyrido[2,3-b]pyrazin-6-yl]-3-ethyl-urea], `CCNC(=O)Nc1ccc2ncc(-c3cccc(C)c3C)nc2n1` [Compound 107, 1-[3-(2,3-Dimethyl-phenyl)-pyrido[2,3-b]pyrazin-6-yl]-3-ethyl-urea] is higher in melting point: 253 °C for the first, 260 °C for the second.

Compared with `CCNC(=O)Nc1ccc2ncc(-c3cccc(Br)c3OC(C)C)nc2n1` [Compound 67, 1-[3-(3-Bromo-2-isopropoxy-phenyl)-pyrido[2,3-b]pyrazin-6-yl]-3-ethyl-urea], `CCNC(=O)Nc1ccc2ncc(-c3cccnc3OC(C)C)nc2n1` [Compound 51, 1-Ethyl-3-[3-(2-isopropoxy-pyridin-3-yl)-pyrido[2,3-b]pyrazin-6-yl]-urea] is higher in melting point: 200 to 202 °C for the first, 231 to 232 °C for the second.

First: CCNC(=O)Nc1ccc2ncc(-c3cc(OC)ccc3OC)nc2n1 [Compound 145, 1-[3-(2,5-Dimethoxy-phenyl)-pyrido[2,3-b]pyrazin-6-yl]-3-ethyl-urea]
Second: CCNC(=O)Nc1ccc2ncc(-c3cccc(OCc4cc(OC)cc(OC)c4)c3)nc2n1 [Compound 121, 1-{3-[3-(3,5-Dimethoxy-benzyloxy)-phenyl]-pyrido[2,3-b]pyrazin-6-yl}-3-ethyl-urea]
The melting point of the first is lower: 207 to 209 °C for the first, 212 to 217 °C for the second.

First: COc1ccc(-c2ccc3ncc(NC(=O)c4ccccc4)nc3n2)cc1OC [Compound 660, N-[6-(3,4-Dimethoxy-phenyl)-pyrido[2,3-b]pyrazin-3-yl]-benzamide]
Second: COc1cc(-c2ccc3ncc(NC(=O)Nc4cccc(-n5cccc5)c4)nc3n2)ccc1O [Compound 619, 1-[6-(4-Hydroxy-3-methoxy-phenyl)-pyrido[2,3-b]pyrazin-3-yl]-3-(3-pyrrol-1-yl-phenyl)-urea]
The melting point of the first is lower: 168 to 170 °C for the first, 214 to 217 °C for the second.

First: C=CCNC(=O)Nc1cnc2ccc(-c3cc(C)c(O)c(C)c3)nc2n1 [Compound 587, 1-Allyl-3-[6-(4-hydroxy-3,5-dimethyl-phenyl)-pyrido[2,3-b]pyrazin-3-yl]-urea]
Second: Cc1cc(-c2ccc3ncc(NC(=O)NC4CCCCC4)nc3n2)cc(C)c1O [Compound 584]
The melting point of the first is lower: 210 to 212 °C for the first, 247 to 250 °C for the second.

In the case of `O=C(Nc1ccc(F)cc1)Nc1cnc2ccc(-c3cc(Cl)c(O)c(Cl)c3)nc2n1` [Compound 559, 1-[6-(3,5-Dichloro-4-hydroxy-phenyl)-pyrido[2,3-b]pyrazin-3-yl]-3-(4-fluoro-phenyl)-urea], the melting point is reported as 289 to 291 °C.

For `O=C(Nc1cnc2ccc(-c3cc(Cl)c(O)c(Cl)c3)nc2n1)Nc1ccccc1[N+](=O)[O-]` [Compound 561, 1-[6-(3,5-Dichloro-4-hydroxy-phenyl)-pyrido[2,3-b]pyrazin-3-yl]-3-(2-nitro-phenyl)-urea], the melting point was greater than 300 °C.
`CCNC(=O)Nc1ccc2ncc(-c3cccc4c3oc3ccccc34)nc2n1` [Compound 71, 1-(3-Dibenzofuran-4-yl-pyrido[2,3-b]pyrazin-6-yl)-3-ethyl-urea] showed a melting point greater than 300 °C.
